Molecules are shown by their SMILES.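 1) Cells in 96-well plates. 2) Compound, 48 h, 5 concentrations. 3) Linear interpolation between surrounding doses. 4) Unreached endpoint = highest concentration. Abbreviation: GI50, concentration required for 50% inhibition of growth. TGI is the concentration that stops growth completely.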

Among the data in PubChem BioAssay (NCI) are TGI and GI50 values, retold here.

Common to all, as to experiment: growth of human tumour cells (NCI), 48 h
For assay [1], the system named is A549 NSCLC.
Assay [2] relates to ACHN renal.
For assay [3], the system named is HCT-116 colon.
Assay [4] concerns KM12 colon.
The subject of assay [5] is MDA-MB-435.
Assay [6] relates to NCI-H460 lung.
The test system of assay [7] is NCI/ADR-RES ovarian.
The subject of assay [8] is OVCAR-5 ovarian.
Assay [9] concerns UACC-62 melanoma.
Assay [10] concerns UO-31 renal.

In the case of `O=C(Nc1cccc(-c2cn3ccccc3n2)c1)c1ccncc1`, the TGI in [1] was greater than 100 µM; in [2], greater than 100 µM; in [3], greater than 100 µM; in [4], greater than 100 µM; in [5], greater than 100 µM; in [6] it was 39 µM. Also, the TGI is 65.1 µM in [7], greater than 100 µM in [8], 42.2 µM in [9] and greater than 100 µM in assay [10].

With `Cc1ccc(S(=O)(=O)N2CCN(CCN(C)CCN3CCN(S(=O)(=O)c4ccc(C)cc4)CC3)CC2)cc1`, the TGI in [1] was found to be 76.1 µM; in assay [2], 32.7 µM; in assay [3] it was 35 µM; in assay [4] it was 31.6 µM; in assay [5] it was 32 µM; in assay [6], 32.2 µM. The TGI in [7] was found to be 43.1 µM; in [8], 80.8 µM; in assay [9] it was 32.8 µM; in assay [10], 26.8 µM.

`CCOC(=O)C(Cc1ccccc1)(Cc1ccc(O)cn1)NC(=O)c1ccccc1` (stereo not given): the TGI in [1] is greater than 100 µM; in [2] it was greater than 100 µM; in assay [3], 68.4 µM; in assay [4] it was 54.8 µM; in assay [5], 30.1 µM; in [6], 99.2 µM. In addition, the TGI in assay [7] is greater than 100 µM; in assay [8] it was greater than 100 µM; in assay [9], 46 µM; in assay [10], greater than 100 µM.

On to `CCN(CC)CCCNc1ccc2nnn3c4ccc(O)cc4c(=O)c1c23`, for which the TGI in assay [1] is 10.3 µM; in assay [2], 17.3 µM; in [3] it was 16.3 µM; in [4] it was 20 µM; in assay [5], 22.1 µM; in [6] it was 9.13 µM. Moreover, the TGI in [7] came to 22.9 µM; in [8] it was 26.8 µM; in assay [9], 30.9 µM; in assay [10], 6.27 µM.

For the compound `COc1cccc(-c2nc3sccn3c2-c2ccnc(NCCNC(=O)Nc3cccc(C(F)(F)F)c3)n2)c1`, the GI50 in assay [1] is 3.82 µM; in assay [2] it was 3.17 µM; in [3], 3.45 µM; in assay [4] it was 3.36 µM; in [5], 2950 nM; in assay [6] it was 2940 nM. In addition, the GI50 in [7] was 3.45 µM; in assay [8], 6.37 µM; in assay [9] it was 2550 nM; in assay [10] it was 2880 nM. The TGI in assay [1] stood at 17.1 µM; in [2], 19.1 µM; in assay [3] it was 11.6 µM; in assay [4], 10.1 µM; in assay [5], 12.3 µM; in [6], 14.4 µM. The TGI in [7] was greater than 100 µM; in assay [8], 52.2 µM; in assay [9] it was 7.48 µM; in assay [10], 24.8 µM.

Turning to `Cc1[nH]c(-c2ccccc2)c(-c2ccc(Cl)cc2)c1C(=O)ONC(=O)c1ccccc1`, the TGI in [1] was 10.4 µM; in [2], 3.48 µM; in assay [3] it was 5.24 µM; in assay [4], greater than 48.3 µM; in assay [5], 11.9 µM; in [6] it was 5.11 µM. Besides, the TGI in [7] was determined as 14.2 µM; in assay [8], 20 µM; in assay [9], 23.3 µM; in assay [10], 2.89 µM.

`CSc1ncc2c(n1)-c1ccccc1OC2N1CCCC1` (stereo not given): the TGI in [1], in assay [2], in assay [3], in assay [4], in assay [5] and in assay [6] was greater than 100 µM throughout. Further, the TGI in [7], in assay [8], in assay [9] and in assay [10] was greater than 100 µM each time.

With `N#CCc1nc(C#N)c(N)o1`, the TGI in [1], in assay [2], in assay [3], in assay [4], in [5] and in [6] was greater than 100 µM each time. In addition, the TGI in assay [7], in [8], in [9] and in assay [10] was greater than 100 µM in each case.

Turning to `O=C1C=CC(=O)c2ncccc21`, the TGI amounted to 28.8 µM in assay [1]; 7.98 µM in assay [2]; 4.27 µM in [3]; 25.5 µM in [4]; 18.5 µM in [5]; 17.5 µM in assay [6]. Moreover, the TGI stood at 36.1 µM in assay [7], 32.2 µM in [8], 9.3 µM in assay [9] and 9.03 µM in assay [10].

As to `COC(=O)C(C)Sc1nc2cc(Cl)ccc2s1` (stereo not given), the TGI in assay [1], in assay [2], in [3], in [4], in assay [5] and in assay [6] was greater than 100 µM throughout. The TGI in assay [7], in [8], in [9] and in [10] was greater than 100 µM throughout.

In the case of `OCCN=C1Nc2ccc(Cl)cc2C(=S)N2CSC[C@@H]12`, the TGI in assay [1], in assay [2], in assay [3], in [4], in assay [5] and in [6] was greater than 100 µM each time. In addition, the TGI in [7], in [8], in assay [9] and in [10] was greater than 100 µM each time.

For `CCOC(=O)c1c(N2CCOCC2)[nH]c(=O)c(C(c2ccc(OC)cc2)c2c(O)c(C(=O)OCC)c(N3CCOCC3)[nH]c2=O)c1O`, the TGI in [1], in assay [2], in [3], in assay [4], in assay [5] and in assay [6] was greater than 100 µM throughout. Also, the TGI in assay [7], in assay [8], in assay [9] and in assay [10] was greater than 100 µM throughout.

In the case of `O=C(NCCNCCO)N/N=C/c1ccc(Cl)cc1`, the TGI in [1], in assay [2], in [3], in assay [4], in assay [5] and in assay [6] was greater than 100 µM each time. Besides, the TGI in assay [7], in assay [8], in assay [9] and in assay [10] was greater than 100 µM each time.
